Source: patent US9250232B2, “Fluorescent probe” (THE UNIVERSITY OF TOKYO, priority 2012, dated 2016)

Key:
[1] = Optical characteristics (absorption and fluorescence maxima, quantum yield) in 0.1 M phosphate buffer with 1% DMSO; type: physicochemical; conditions: for λmax,fl (nm) / Φfl (fluorescence quantum yield): 0.1 M phosphate buffer (pH 9); for Φfl (fluorescence quantum yield): standard 2-Me TM (0.42); for λmax,abs (nm) pH 9: pH 9, 0.1 M phosphate buffer
Protocol: (§1) The measurement was performed in a 0.1 M phosphate buffer (pH 9) containing 1% dimethyl sulfoxide (DMSO). pKa was obtained from the absorbance meaured in a phosphate buffer (pH 9) by single-phase or two-phase curve fitting.

HEK293 cells = experiment: Imaging of β-galactosidase in live HEK293 cells (lacZ+ / lacZ−), intracellular uptake; type: cell-based; conditions: 10 μM, 37° C., 30 minutes, DMEM with 0.1% DMSO, confocal microscope
Protocol: For the HEK293 cells in which the lacZ gene encoding β-galactosidase was stably expressed (lacZ+), and the HEK293 cells into which the lacZ gene was not introduced (lacZ−) as a control, β-galactosidase in the cells was measured by using diCl-2-COOH TM-monoβGal or diCl-2-COOH TM-diβGal. The HEK293 cells (lacZ−) were incubated at 37° C. for 30 minutes in the Dulbecco's Modified Eagle's medium (DMEM) containing 0.1% DMSO together with 10 μM diCl-2-COOH TM-monoβGal or diCl-2-COOH TM-diβGal. […] The results are shown in FIG. 19 (diCl-2-COOH TM-monoβGal) and FIG. 20 (diCl-2COOHTM-diβGal).

[2] = Estimate of open-ring ratio by comparison with the absorption spectrum of TM-βGal; type: physicochemical; conditions: pH of physiological conditions; 10 μM in 0.1 M sodium phosphate buffer, 1.0% DMSO; versus TM-βGal
Protocol: In order to estimate the open-ring ratio of diCl-2-COOH TM-monoβGal, comparison with the absorption spectrum of TM-βGal was performed. […] The measurement was performed by using 10 μM diCl-2-COOH TM-monoβGal in a 0.1 M sodium phosphate buffer of various pH values containing 1.0% DMSO. The excitation wavelength was 450 nm for TMβGal (compound described in International Patent Publication WO2012/099218), or 460 nm for diCl-2-COOH TM-monoβGal.

[3] = Optical characteristics of diCl-2-COOH TM-monoβGal in 0.1 M phosphate buffer; type: physicochemical
Protocol: The quantum yield was calculated by using the quantum yield (0.85) of fluorescein in 0.1M aqueous sodium hydroxide as the standard.

[4] = pKa from absorbance in phosphate buffer by single-phase or two-phase curve fitting; conditions: single value given
Protocol: as §1

[5] = 2-Me TokyoMagenta in 0.1 M phosphate buffer (pH 9); compound of WO2012/099218; cited from earlier work

Protocol for physchem: as §1

C[Si]1(C)C2=C(Cl)C(=O)C=CC2=C(c2ccccc2C(=O)O)c2ccc(O)c(Cl)c21 [2-COOH DCTM, 4′,5′-Dichloro-2-COOH TokyoMagenta]
λmax,fl (nm) [1]: 607 nm
Φfl (fluorescence quantum yield) [1]: 0.48
λmax,abs (nm) pH 9 [1]: 591 nm

C[Si]1(C)C2=CC(=O)C=CC2=C(c2ccccc2C(=O)O)c2ccc(O)cc21 [2-COOH TM]
pKa (physchem; pKa (first of two printed values)): 8.3
pKa (physchem; pKa (second of two printed values)): 7.6
λmax,fl (nm) [1]: 598 nm
Φfl (fluorescence quantum yield) [1]: 0.38
λmax,abs (nm) pH 9 [1]: 582 nm

C[Si]1(C)C2=C(Cl)C(=O)C=CC2=C(c2ccccc2C(=O)O)c2ccc(O[C@@H]3O[C@H](CO)[C@H](O)[C@H](O)[C@H]3O)c(Cl)c21 [diCl-2-COOH TM-monoβGal, 4′,5′-Dichloro-2-COOH TokyoMagenta mono-β-D-galactopyranoside]
Intracellular uptaking amount compared with diCl-2-COOH TM-diβGal (HEK293 cells): larger
Part having the ring-closed structure, which does not show absorption [2]: more than 95%
Absorption λmax [nm] [3]: 460 nm
Fluorescence λmax [nm] [3]: 555 nm
Extinction Coefficient ε [M^−1cm^−1] ([3]; pH 7.4): 1,200 (pH 7.4) M^−1cm^−1
Quantum yield Φfl ([3]; pH 7.4, standard fluorescein (0.85)): 0.09 (pH 7.4)

Cc1ccccc1C1=C2C=CC(=O)C=C2[Si](C)(C)c2cc(O)ccc21 [2-Me TM, 2-Me TokyoMagenta]
pKa [4]: 6.8
Φfl (quantum yield used as the standard) [5]: 0.42
λmax,fl (nm) [1]: 598 nm
λmax,abs (nm) pH 3 ([1]; pH 3, 0.1 M phosphate buffer): 472 nm
λmax,abs (nm) pH 9 [1]: 582 nm
